US20170202845A1, “PROPHYLACTIC OR THERAPEUTIC AGENT FOR A POSTERIOR OCULAR DISEASE” (SANTEN PHARMACEUTICAL CO., LTD., priority 2014, published 2017)

System: choroidal neovascularization
Test: laser-induced rat choroidal neovascularization model
Type: in vivo
Experimental: Usefulness of the present compounds was evaluated using a laser-induced rat choroidal neovascularization model (Invest. Ophthalmol. Vis. Sci., 40(2), 459-466 (1999)).
A rat was generally anesthetized by intramuscular administration of 1 mL/kg of a mixed solution (7:1) comprising a 5% (W/V) ketamine hydrochloride injection solution and a 2% xylazine hydrochloride injection solution. 0.5% (W/V) Tropicamide-0.5% phenylephrine hydrochloride eye drop was dropped into eyes for mydriasis, and photocoagulation was carried out with a krypton laser photocoagulation apparatus. […]
At the 7th day after the photocoagulation, the rat was generally anesthetized by intramuscular administration of 1 mL/kg of a mixed solution (7:1) comprising a 5% (W/V) ketamine hydrochloride injection solution and a 2% xylazine hydrochloride injection solution. […] The spot of photocoagulation with no leakage of fluorescence detected by fluorescein fundus angiography was judged as negative (no neovascularization), and the spot of photocoagulation with leakage of fluorescence was judged as positive. The spot of photocoagulation with slight leakage of fluorescence was judged as positive (neovascularization exists) when 2 or more spots of such a state were detected in one eye. […]

Question: Which “Suppressing rate (%)” value (krypton laser-induced rat choroidal neovascularization, 100 mg/kg orally twice a day for 7 days, fluorescein fundus angiography at 7th day, relative to base administered group) does the source give for `CC(=O)N[C@@H]1C[C@H](NC(C)(C)C)CC[C@@H]1N1CC[C@H](Nc2ncnc3cc(C(C)(C)C)nn23)C1=O` [Compound 1b, N-((1R,2S,5R)-5-(tert-butylamino)-2-((S)-3-(7-tert-butylpyrazolo[1,5-a][1,3,5]triazin-4-ylamino)-2-oxopyrrolidin-1-yl)cyclohexyl)acetamide] here?
Answer: Its value is 66.6%.

Question: And the “inhibition of choroidal neovascularization (in words)” value (laser-induced rat choroidal neovascularization model animal)?
Answer: The value was “inhibit choroidal neovascularization”.
